Values after ≈ are worked out from the molar mass of the structure shown.
How the values were obtained:
[1] = AUC in Wistar rat at 500 mg/kg, po administered as single dose measured up to 8 hrs post dose by LC-MS analysis; type: ADME, organism-based; set-up: dose 500 mg/kg, time < 8 hr, route oral; conditions: in vivo
[2] = Thermodynamic solubility of the compound in phosphate buffered saline at pH 6.5; type: physicochemical; conditions: read-out: Therm_solubility
[3] = Fraction unbound in rat plasma; type: ADME, cell-free
[4] = Fraction unbound in dog plasma; type: ADME, cell-free, Canis lupus familiaris
[5] = Fraction unbound in human plasma; type: ADME, cell-free
MDR1 (P-gp) = assay: Apparent permeability across basolateral to apical side in MDCK cells expressing human MDR1; type: ADME, cell-based, Canis lupus familiaris; conditions: dog
Rattus norvegicus = assay: Effect on reproductive system in Wistar Han rat at 30 to 500 mg/kg, po for 14 days; type: ADME, organism-based; conditions: in vivo, 336 h
[6] = molecular target: T1, Mineralocorticoid receptor (Homo sapiens, UniProt P08235)
T1 sequence (P08235 whole entry): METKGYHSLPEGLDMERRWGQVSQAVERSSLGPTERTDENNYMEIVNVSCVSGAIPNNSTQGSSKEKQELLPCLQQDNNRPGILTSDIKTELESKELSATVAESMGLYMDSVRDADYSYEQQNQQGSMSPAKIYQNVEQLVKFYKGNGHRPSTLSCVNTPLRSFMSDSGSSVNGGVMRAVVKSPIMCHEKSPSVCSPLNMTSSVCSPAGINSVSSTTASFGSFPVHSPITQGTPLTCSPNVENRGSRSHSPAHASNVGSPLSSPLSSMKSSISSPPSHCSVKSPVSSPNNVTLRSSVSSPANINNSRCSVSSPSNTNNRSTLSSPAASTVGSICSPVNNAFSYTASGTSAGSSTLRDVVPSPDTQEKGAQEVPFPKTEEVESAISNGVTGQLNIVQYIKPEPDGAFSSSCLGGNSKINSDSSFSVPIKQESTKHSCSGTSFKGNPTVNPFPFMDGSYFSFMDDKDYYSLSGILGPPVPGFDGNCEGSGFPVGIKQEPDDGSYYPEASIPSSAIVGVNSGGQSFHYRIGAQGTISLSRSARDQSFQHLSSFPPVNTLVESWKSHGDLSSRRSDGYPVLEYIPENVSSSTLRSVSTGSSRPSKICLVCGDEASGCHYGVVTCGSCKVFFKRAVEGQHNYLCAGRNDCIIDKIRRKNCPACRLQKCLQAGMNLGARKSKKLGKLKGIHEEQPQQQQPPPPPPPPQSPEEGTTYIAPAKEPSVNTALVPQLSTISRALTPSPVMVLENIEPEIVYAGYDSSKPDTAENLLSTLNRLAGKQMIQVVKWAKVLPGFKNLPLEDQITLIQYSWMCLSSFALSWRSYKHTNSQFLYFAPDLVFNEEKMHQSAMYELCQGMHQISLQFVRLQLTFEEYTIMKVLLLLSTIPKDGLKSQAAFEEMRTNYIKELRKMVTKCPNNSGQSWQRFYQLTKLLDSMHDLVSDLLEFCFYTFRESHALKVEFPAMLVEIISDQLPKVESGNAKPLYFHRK
Description: Displacement of [3H]-aldosterone from human GST-tagged MR ligand binding domain after 4 hrs by liquid scintillation counting

Structure (SMILES) | AUC at 8 h [1] [ng·h/mL] | solubility thermodynamic [2] [µM] | fraction unbound [3] | fraction unbound [4] | fraction unbound [5] | Papp B→A (MDR1 (P-gp)) [×10⁻⁶ cm/s] | Activity (Rattus norvegicus) | IC50 [6] [nM]
C[C@@H]1CN(c2ccc3c(n2)NC(=O)CO3)[C@H](c2ccccc2)CO1 | 13500 | 17 (≈ 5.53 µg/mL) | 0.15 | 0.136 | 0.15 | 24.7 | Non-Toxic | –
O=C1COc2ccc(N3CCOC[C@H]3c3ccccc3)cc2N1 | – | – | – | – | – | – | – | 401

From ChEMBL document CHEMBL4024791, “Identification of Morpholino-2H-pyrido[3,2-b][1,4]oxazin-3(4H)-ones as Nonsteroidal Mineralocorticoid Antagonists” (J Med Chem, 2018)
